From US9006388B2, “Covalent attachment of ligands to nucleophilic proteins guided by non-covalent” (priority 2003, dated 2015)

Experiments:
gp120 (MN strain) = target: T1, gp120 (MN strain) (Human immunodeficiency virus type 1 group M subtype B, UniProt P05877); assay: Irreversible hapten CAL binding by gp120; set-up: species or system HIV
T1 construct: purchased

trypsin = target: T2, trypsin (Sus scrofa, UniProt P00761); assay: Irreversible hapten CAL binding by trypsin; set-up: species or system porcine; conditions: hapten CAL 100 μM
T2 construct: purchased Sigma type IX
T2 sequence (P00761 9-231): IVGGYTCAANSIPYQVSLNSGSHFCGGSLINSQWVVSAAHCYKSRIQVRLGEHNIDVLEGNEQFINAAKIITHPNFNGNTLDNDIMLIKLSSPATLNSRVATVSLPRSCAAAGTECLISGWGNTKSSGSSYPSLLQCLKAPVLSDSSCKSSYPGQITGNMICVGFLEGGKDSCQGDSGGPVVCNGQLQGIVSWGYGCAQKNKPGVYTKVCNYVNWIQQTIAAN

plasma proteins = assay: CAL reaction in the presence of human plasma; assay type: binding; conditions: human plasma 1% v/v, CAL 10 μM, 1 h
calmodulin = calmodulin (Homo sapiens, UniProt P0DP23); assay: Irreversible CAL binding by calmodulin
human IgG = assay type: binding
IgG = assay type: biochemical, human
nine purified proteins = assay: Screening of purified proteins for irreversible hapten CAL binding; conditions: protein 1 μM, CAL 0.5 mM, 16 h, 37° C.
[1] = tested on: human polyclonal IgG HS-2; assay: Irreversible inhibition of HS-2 IgG-catalyzed [Tyr10-125I]-VIP cleavage; assay type: biochemical; conditions: IgG 2 μM preincubated 16 h, unreacted CAL removed
[2] = tested on: monoclonal anti-VIP IgG clone c23.5; assay: Covalent CAL binding by monoclonal anti-VIP IgG c23.5
murine splenocytes = assay: Hapten CAL I reactivity with spleen cells (microscopy, flow cytometry); assay type: cell-based, BALB/c mouse
Description: BCR covalent reaction with hapten CALs. hapten CALs such as compound I (FIG. 19) react irreversibly with nucleophilic sites in conventional serine proteases and Abs (3,35,44-47). Methods for synthesis of this compound, preparation of B cells from mice, flow cytometric analysis of binding to the cells and electrophoretic measurement of covalent binding to Ig subunits are described in refs 3,35,48. To evaluate the nucleophilic reactivity expressed on the surface of B cells in the preimmune repertoire (viz., the repertoire developed spontaneously without purposeful immunological challenge), viable splenocytes from BALB/c mice were treated with hapten CAL I. The control compound II is identical in structure to hapten CAL I, except that the phosphonate group is not esterified, which results in loss of covalent reactivity with nucleophilic residues (3,35). […] Flow cytometry confirmed the microscopy results. […] In 3 repeat experiments, the proportion of hapten CAL I-stained cells that were positive for the B cell marker CD19 was 82±4% (FIG. 20B). […] Most of the CAL fluorescence was restricted to the surfaces of the B cells (FIG. 20F).

[3] = flow cytometry, 100 μM, 4 hours

inhibition of 3-calmodulin binding (calmodulin; VIP 100 μM, 3 10 μM) [%] | Molecule | Kd (gp120 (MN strain)) [µM] | first-order rate constant of covalent adduct formation k2 (gp120 (MN strain); pH 7.4, 37° C.) [min⁻¹] | velocity of covalent I adduct formation with trypsin (trypsin) [AAU/min] | reaction with plasma proteins (plasma proteins) | second-order rate constant for reaction with calmodulin (calmodulin; calmodulin 1 μM, 3 10 μM or 1 0.5 mM, 37° C.) [M⁻¹ min⁻¹] | velocity for IgG relative to trypsin (human IgG) [fold] | velocity of covalent I adduct formation with IgG (human IgG) [AAU/min] | inhibition of IgG-catalyzed peptide-MCA cleavage (IgG) | proteins forming irreversible adducts (nine purified proteins) | IC50 [1] [µM] | Vapp values for the two subunits of anti-VIP Ab [2] | loss of viability of cells (trypan blue exclusion) (murine splenocytes) | proportion of hapten CAL I-stained cells positive for CD19 (murine splenocytes; 3 repeat experiments) [%] | cells displaying intense staining (murine splenocytes; UV microscope, 400 lymphocytes counted, N 3) | cells with fluorescence intensities exceeding compound II-treated cells (murine splenocytes; [3]) | subpopulation with very high fluorescence intensity (murine splenocytes; [3]) [%]
– | N=C(N)c1ccc(C(NC(=O)CCCCCNC(=O)CCCC[C@@H]2SC[C@@H]3NC(=O)N[C@@H]32)P(=O)(Oc2ccccc2)Oc2ccccc2)cc1 (some centres unmarked) [hapten CAL I, Diphenyl N-(6-biotinamidohexanoyl)amino(4-amidinophenyl)methanephosphonate] | 710 ± 500 | 0.015 ± 0.007 | 11.9±0.6 | little or no adduct formation | 0.212 ± 0.017 | 14.5 | 172.7±14.2 | inhibited | Seven of the nine | 36 | nearly equivalent | No loss of viability | 82±4 | 11±2 | Seventy nine | 14
65 | VIP: 28 amino acid peptide, devoid of the phosphonate group [reference compound] | – | – | – | – | – | – | – | – | – | – | – | – | – | – | – | –
